The experiment has as its target T1, human IL-17A (Homo sapiens, UniProt Q16552).
T1 construct: purchased R&D Systems 7955-IL/CF
T1 sequence (Q16552 24-155): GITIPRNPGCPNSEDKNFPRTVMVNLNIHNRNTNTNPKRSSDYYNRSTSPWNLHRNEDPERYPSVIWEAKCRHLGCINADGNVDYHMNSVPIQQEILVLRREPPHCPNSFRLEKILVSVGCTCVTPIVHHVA
Kind of experiment: IL-17A AlphaLISA competition assay (block of IL-17A binding to its receptor IL-17RA). The conditions noted are these: mean IC50 (n≥2), block of IL-17A binding to IL-17RA. A digest of the protocol: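 Human recombinant IL-17A (7.5 nM stock) pre-incubated 30 min at RT with compound, then IL-17RA/Fc (5 nM stock) added for 90 min; AlphaLISA read with anti-Fc acceptor beads, biotinylated anti-IL-17A antibody (5 nM) and streptavidin donor beads (3 h, dark). IC50 from 4-parameter logistic fit, normalised to DMSO and 4 μM reference inhibitor; n≥2.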
In general terms: Bead proximity is the source of the signal in Alpha formats.

Consider `CCC(c1ccnc(NC(=O)C(NC(=O)c2nonc2C2CC2)C2CCC(C)CC2)c1)N1CC(C(F)(F)F)NC1=O` [Example 257, 4-cyclopropyl-N-((S)-1-((1r,4S)-4-methylcyclohexyl)-2-oxo-2-((4-((R)-1-((S)-2-oxo-4-(trifluoromethyl)imidazolidin-1-yl)propyl)pyridin-2-yl)amino)ethyl)-1,2,5-oxadiazole-3-carboxamide], for which the IC50 (usually the concentration at which inhibition is half-maximal) came out at 32 nM.

Regarding `CCC(c1ccnc(NC(=O)C(NC(=O)c2ccnn2CC)C2CCC(C)CC2)c1)N1CC(C(F)(F)F)NC1=O` [Example 258, 1-ethyl-N-((S)-1-((1r,4S)-4-methylcyclohexyl)-2-oxo-2-((4-((R)-1-((S)-2-oxo-4-(trifluoromethyl)imidazolidin-1-yl)propyl)pyridin-2-yl)amino)ethyl)-1H-pyrazole-5-carboxamide], the IC50 came to 9 nM.

Take `CCC(c1ccnc(NC(=O)C(NC(=O)c2ccnn2C)C2CCC(C)CC2)c1)N1CC(C(F)(F)F)NC1=O` [Example 259, 1-methyl-N-((S)-1-((1r,4S)-4-methylcyclohexyl)-2-oxo-2-((4-((R)-1-((S)-2-oxo-4-(trifluoromethyl)imidazolidin-1-yl)propyl)pyridin-2-yl)amino)ethyl)-1H-pyrazole-5-carboxamide]: the IC50 was determined as 6 nM. The same measure for `CCC(c1ccnc(NC(=O)C(NC(=O)c2ccnn2C(C)C)C2CCC(C)CC2)c1)N1CC(C(F)(F)F)NC1=O` [Example 260, 1-isopropyl-N-((S)-1-((1r,4S)-4-methylcyclohexyl)-2-oxo-2-((4-((R)-1-((S)-2-oxo-4-(trifluoromethyl)imidazolidin-1-yl)propyl)pyridin-2-yl)amino)ethyl)-1H-pyrazole-5-carboxamide]: 13 nM; for `CCc1conc1C(=O)N[C@H](C(=O)Nc1cc([C@@H](COC)N2C[C@@H](C(F)(F)F)NC2=O)ccn1)C1CC(F)(F)C1` [Example 261, N—((S)-1-(3,3-difluorocyclobutyl)-2-((4-((S)-2-methoxy-1-((S)-2-oxo-4-(trifluoromethyl)imidazolidin-1-yl)ethyl)pyridin-2-yl)amino)-2-oxoethyl)-4-ethylisoxazole-3-carboxamide]: 189 nM; for `COC[C@H](c1ccnc(NC(=O)[C@@H](NC(=O)c2ccnn2C(C)C)C2CC(F)(F)C2)c1)N1C[C@@H](C(F)(F)F)NC1=O` [Example 262, N—((S)-1-(3,3-difluorocyclobutyl)-2-((4-((S)-2-methoxy-1-((S)-2-oxo-4-(trifluoromethyl)imidazolidin-1-yl)ethyl)pyridin-2-yl)amino)-2-oxoethyl)-1-isopropyl-1H-pyrazole-5-carboxamide]: 198 nM. To `C[C@H]1CC[C@@H]([C@H](NC(=O)c2nonc2C2CC2)C(=O)Nc2cc(CN3C[C@@H](C(F)(F)F)NC3=O)ccn2)CC1` [Example 263, 4-Cyclopropyl-N—((S)-1-((1s,4R)-4-methylcyclohexyl)-2-oxo-2-((4-(((S)-2-oxo-4-(trifluoromethyl)imidazolidin-1-yl)methyl)pyridin-2-yl)amino)ethyl)-1,2,5-oxadiazole-3-carboxamide] belongs 90 nM.

In the case of `Cn1nccc1C(=O)N[C@H](C(=O)Nc1cc(CN2C[C@@H](C(F)(F)F)NC2=O)ccn1)[C@H]1CC[C@@H](C)CC1` [Example 264, 1-Methyl-N—((S)-1-((1s,4R)-4-methylcyclohexyl)-2-oxo-2-((4-(((S)-2-oxo-4-(trifluoromethyl)imidazolidin-1-yl)methyl)pyridin-2-yl)amino)ethyl)-1H-pyrazole-5-carboxamide], the IC50 amounted to 99 nM. The same measure for `COC[C@H](c1ccnc(NC(=O)[C@H](COC(C)(C)C(F)(F)F)NC(=O)c2nocc2C)c1)N1C[C@@H](C(F)(F)F)NC1=O` [Example 265, N—((S)-1-((4-((S)-2-methoxy-1-((S)-2-oxo-4-(trifluoromethyl)-imidazolidin-1-yl)ethyl)pyridin-2-yl)amino)-1-oxo-3-((1,1,1-trifluoro-2-methylpropan-2-yl)oxy)propan-2-yl)-4-methylisoxazole-3-carboxamide]: 45 nM; for `CCc1nonc1C(=O)N[C@@H](COC(C)(C)C(F)(F)F)C(=O)Nc1cc([C@@H](COC)N2C[C@@H](C(F)(F)F)NC2=O)ccn1` [Example 266, 4-ethyl-N-((S)-1-((4-((S)-2-methoxy-1-((S)-2-oxo-4-(trifluoromethyl)imidazolidin-1-yl)ethyl)pyridin-2-yl)amino)-1-oxo-3-((1,1,1-trifluoro-2-methylpropan-2-yl)oxy)propan-2-yl)-1,2,5-oxadiazole-3-carboxamide]: 15 nM.

Take `CCc1nocc1C(=O)N[C@@H](COC(C)(C)C(F)(F)F)C(=O)Nc1cc([C@@H](COC)N2C[C@@H](C(F)(F)F)NC2=O)ccn1` [Example 267, 3-ethyl-N-((S)-1-((4-((S)-2-methoxy-1-((S)-2-oxo-4-(trifluoromethyl)imidazolidin-1-yl)ethyl)pyridin-2-yl)amino)-1-oxo-3-((1,1,1-trifluoro-2-methylpropan-2-yl)oxy)propan-2-yl)isoxazole-4-carboxamide]: the IC50 is 27 nM. Turning to `COC[C@H](c1ccnc(NC(=O)[C@H](COC(C)(C)C(F)(F)F)NC(=O)c2nonc2C)c1)N1C[C@@H](C(F)(F)F)NC1=O` [Example 268, N-((S)-1-((4-((S)-2-methoxy-1-((S)-2-oxo-4-(trifluoromethyl)imidazolidin-1-yl)ethyl)pyridin-2-yl)amino)-1-oxo-3-((1,1,1-trifluoro-2-methylpropan-2-yl)oxy)propan-2-yl)-4-methyl-1,2,5-oxadiazole-3-carboxamide], the IC50 was determined as 31 nM.

For the compound `COC[C@H](c1ccnc(NC(=O)[C@H](COC(C)(C)C(F)(F)F)NC(=O)c2nonc2C2CC2)c1)N1C[C@@H](C(F)(F)F)NC1=O` [Example 269, 4-cyclopropyl-N-((S)-1-((4-((S)-2-methoxy-1-((S)-2-oxo-4-(trifluoromethyl)imidazolidin-1-yl)ethyl)pyridin-2-yl)amino)-1-oxo-3-((1,1,1-trifluoro-2-methylpropan-2-yl)oxy)propan-2-yl)-1,2,5-oxadiazole-3-carboxamide], the IC50 was 10 nM. To `CCn1nccc1C(=O)N[C@@H](COC(C)(C)C(F)(F)F)C(=O)Nc1cc([C@@H](COC)N2C[C@@H](C(F)(F)F)NC2=O)ccn1` [Example 270, 1-ethyl-N-((S)-1-((4-((S)-2-methoxy-1-((S)-2-oxo-4-(trifluoromethyl)imidazolidin-1-yl)ethyl)pyridin-2-yl)amino)-1-oxo-3-((1,1,1-trifluoro-2-methylpropan-2-yl)oxy)propan-2-yl)-1H-pyrazole-5-carboxamide] belongs 29 nM; to `COC[C@H](c1ccnc(NC(=O)[C@H](COC(C)(C)C(F)(F)F)NC(=O)c2ccnn2C)c1)N1C[C@@H](C(F)(F)F)NC1=O` [Example 271, N-((S)-1-((4-((S)-2-methoxy-1-((S)-2-oxo-4-(trifluoromethyl)imidazolidin-1-yl)ethyl)pyridin-2-yl)amino)-1-oxo-3-((1,1,1-trifluoro-2-methylpropan-2-yl)oxy)propan-2-yl)-1-methyl-1H-pyrazole-5-carboxamide], 36 nM; to `COC[C@H](c1ccnc(NC(=O)[C@H](COC(C)(C)C(F)(F)F)NC(=O)c2ccnn2C(C)C)c1)N1C[C@@H](C(F)(F)F)NC1=O` [Example 272, 1-isopropyl-N-((S)-1-((4-((S)-2-methoxy-1-((S)-2-oxo-4-(trifluoromethyl)imidazolidin-1-yl)ethyl)pyridin-2-yl)amino)-1-oxo-3-((1,1,1-trifluoro-2-methylpropan-2-yl)oxy)propan-2-yl)-1H-pyrazole-5-carboxamide], 48 nM. To `Cc1nonc1C(=O)N[C@@H](COC(C)(C)C(F)(F)F)C(=O)Nc1cc(CN2C[C@@H](C(F)(F)F)NC2=O)ccn1` [Example 273, 4-methyl-N—((S)-1-oxo-1-((4-(((S)-2-oxo-4-(trifluoromethyl)-imidazolidin-1-yl)methyl)pyridin-2-yl)amino)-3-((1,1,1-trifluoro-2-methylpropan-2-yl)oxy)propan-2-yl)-1,2,5-oxadiazole-3-carboxamide] belongs 403 nM; to `CC(C)(OC[C@H](NC(=O)c1nonc1C1CC1)C(=O)Nc1cc(CN2C[C@@H](C(F)(F)F)NC2=O)ccn1)C(F)(F)F` [Example 274, 4-cyclopropyl-N-((S)-1-oxo-1-((4-(((S)-2-oxo-4-(trifluoromethyl)imidazolidin-1-yl)methyl)pyridin-2-yl)amino)-3-((1,1,1-trifluoro-2-methylpropan-2-yl)oxy)propan-2-yl)-1,2,5-oxadiazole-3-carboxamide], 75 nM. The same measure for `Cn1nccc1C(=O)N[C@@H](COC(C)(C)C(F)(F)F)C(=O)Nc1cc(CN2C[C@@H](C(F)(F)F)NC2=O)ccn1` [Example 275, 1-methyl-N-((S)-1-oxo-1-((4-(((S)-2-oxo-4-(trifluoromethyl)imidazolidin-1-yl)methyl)pyridin-2-yl)amino)-3-((1,1,1-trifluoro-2-methylpropan-2-yl)oxy)propan-2-yl)-1H-pyrazole-5-carboxamide]: 946 nM. In turn, `Cc1nonc1C(=O)NC(C(=O)Nc1cc(CN2CC(C(F)(F)F)NC2=O)ccn1)C1CCC(F)CC1` [Example 291, N-((S)-1-((1r,4S)-4-fluorocyclohexyl)-2-oxo-2-((4-(((S)-2-oxo-4-(trifluoromethyl)imidazolidin-1-yl)methyl)pyridin-2-yl)amino)ethyl)-4-methyl-1,2,5-oxadiazole-3-carboxamide] showed an IC50 of 619 nM.

(Values after patent publication US20260200928A1, “THERAPEUTIC COMPOUNDS” (Sanofi, priority 2022, published 2026).)
